Measured values as given in patent publication US5721231A, “Thienotriazolodiazepine compound and pharmaceutical use thereof” (Yoshitomi Pharmaceutical Industries, Ltd., priority 1993, dated 1998).

Tests used:
[1] = test system: VCAM-1 expression in HUVECs; test: Inhibitory effect on expression of VCAM-1 in human umbilical vein-derived endothelial cells (HUVECs); format: cell-based
Protocol: HUVECs were suspended in 199 medium (Biocell Laboratories, Inc., Rancho Dominguez, Calif. USA) containing 20% fetal calf serum, 20 μg/ml endothelial cell growth factor derived from bovine brain and 100 μg/ml heparin, plated into 96-well microculture plates coated with collagen, and cultured at 37° C. in 5% CO2. When cells were grown to confluence, the cells received tumor necrosis factor-α (100 U/ml) and the test compound A, and cultured for 5 hours. After the cells were washed once with 199 medium, mouse anti-human VCAM-1 monoclonal antibody (2 μg/ml) was added, and the cells were incubated for 1 hour at room temperature. After the cells were washed twice, peroxidase-conjugated anti-mouse immunoglobulin antibody was added, and the cells were incubated for 1 hour at room temperature. After the cells were washed 3 times, a substrate for peroxidase, 2,2'-azino-bis(3-ethylbenzothiazolone-6-sulfonicacid), was added. After the plates were stood for 15 minutes at room temperature, absorbance at 405 nm with a reference wave length of 490 nm was measured with a 96-well microplate reader and was regarded as an indicator of VCAM-1 expression.

[2] = test system: Oxazolone-induced ear edema in mice; test: Oxazolone-induced ear edema in mice (intradermal administration, Experimental Example 2); format: in vivo, mouse
Protocol: […] On day 7, 5 μl of oxazolone solution was applied to each surface of the right ear. After 24 hours (day 8), the right and left ears were cut out with a puncher of 6 mm in diameter and weighed with an electronic reading balance. The difference in weight between the oxazolone-treated ear (right) and untreated ear (left) was taken to reflect the degree of ear edema. Compound A was dissolved in 20% 2-hydroxypropyl-β-cyclodextrinsolution containing 1% dimethyl sulfoxide and injected intradermally into the mouse right ear (25 μl/site) on day 7 (immediately before application of oxazolone).

[3] = test system: Picryl chloride-induced ear edema in mice; test: Picryl chloride-induced ear edema in mice (Experimental Example 3); format: in vivo, mouse; conditions: cyclophosphamide +, 10 μl/site intradermal, control 10.8 ± 1.3
Protocol: Cyclophosphamide (150 mg/kg) was administered subcutaneously to mice on day -2. The mice were sensitized twice by applying 50 μl of picryl chloride solution (70 mg/ml in ethanol) to their shaved abdomen on days 0 and 1. On day 13, 10 μl of picryl chloride solution (10 mg/ml in ethanol) was applied to each surface of the right ear. Two days later (on day 15), the right and left ears were cut out with a puncher of 6 mm in diameter and weighed with an electronic reading balance. The difference in weight between the treated (right) ear and the untreated (left) ear was taken as an indicator of edema. […] […] The group treated with cyclophosphamide and picryl chloride was taken as a control, and statistical significance was evaluated by Dunnett's test.

[4] = test system: TDI-induced rhinitis in guinea pig; test: Tolylene 2,4-diisocyanate (TDI)-induced rhinitis in guinea pig (Experimental Example 4); format: in vivo; conditions: for Number of leukocytes, mean ± S.D.: sensitized, control 20.0 ± 2.04, p < 0.01
Protocol: Guinea pigs (three to six per group) were sensitized by applying a mixture of TDI and ethyl acetate (1:7) with cotton buds to both of their nasal cavities under anesthetization with diethyl ether on days 0 to 3 and days 7 to 10. On days 27, 29, 31 and 35, the reaction of the guinea pigs was challenged by applying the same mixture to the nasal cavities in a similar manner as described above. Three hours after the last challenge, the guinea pigs were anesthetized with pentobarbital (30 mg/kg, i.p.), and the nasal cavities were washed with physiological saline. Number of leukocytes in the fluid obtained above was counted with an automatic blood cell counter. Compound A (0.1, 1 or 10 μg/20 μl/site×2/guinea pig) was dissolved in 20% hydroxypropyl-β-cyclodextrin solution containing 1% dimethyl sulfoxide and injected into the both nasal cavities of guinea pigs 1 hour before the last challenge (on day 35).

[5] = test system: Antigen (egg albumin)-induced eosinotaxis in lung of guinea pigs; test: Inhibitory effect on topical eosinotaxis in lung induced by antigen (Experimental Example 5); format: in vivo, guinea pig (male Hartley)
Protocol: Male Hartley guinea pigs (4 weeks old, Japan SLC) were bred under the homoiothermal (23±2° C.) and homohumidity (55±5%) conditions.
Compound A was dissolved in 20% 2-hydroxypropyl-β-cyclodextrin containing 1% dimethyl sulfoxide to a concentration of 0.01%.
Antigen (egg albumin, Sigma, 10 mg/ml in saline) was nebulized on guinea pigs for 10 minutes with an ultrasonic nebulizer (NE-U12, OMRON CORPORATION). One week later, the antigen was nebulized again in the same manner.
At one week after the second antigen inhalation, mepyramine (Sigma, 10 mg/ml in saline) was intraperitoneally administered by 1 ml/kg. Twenty minutes later, a solution of Compound A (0.01%) or the medium (control) was nebulized for 10 minutes with a jet nebulizer (Nippon Shoji, Ltd.). Immediately thereafter, the antigen (egg albumin, 10 mg/ml) was nebulized for 5 minutes with an ultrasonic nebulizer. Five hours later, the solution of Compound A (0.01%) or the medium was nebulized again for 10 minutes with a jet nebulizer. […] At 24 hours after the antigen nebulizing, the lung was washed three times with physiological saline (10 ml, 37° C.), and the total number of the cells in the collected lung washings was counted by a colter counter (MEK 4200, Nippon Koden). […] The number of eosinophils was calculated from the ratio of existing cells and the total cell number.

[6] = test system: CD11b expression in U937 cells; test: Effect on CD11b expression in human histiocytic leukemia cell line U937; format: cell-based; conditions: U-937, 72 h, PDB 10 ng/ml, 3 days, read-out: Inhibitory effect on CD11b expression (IC50)
Protocol: Effect on the expression of CD11b antigen, which constitutes the a chain of Mac-1, one of the adhesion molecules expressed on the surface of leukocytic cells, was investigated. U937 cells were suspended in RPMI1640 medium containing 20% fetal calf serum, plated with phorbol 12,13-dibutyrate (PDB, 10 ng/ml) and Compound A or Compound B into 96-well filtration plates (30,000 cells/well), and cultured for 3 days at 37° C. in 5% CO2. After the cells were washed once with RPMI1640 medium, rat anti-human CD11b monoclonal antibody (2 μg/ml) was added and the plates were kept for 1 hour on ice. After the cells were washed twice, peroxidase-conjugated anti-rat immunoglobulin antibody (1 μg/ml) was added, and the cells were kept for 1 hour on ice. After the cells were washed 3 times, o-phenylenediamine was added as a substrate for peroxidase. The plates were allowed to stand for 15 minutes at room temperature, and absorbance at 490 nm was measured with a 96-well plate reader. The absorbance was regarded as an indicator of CD11b antigen expression.

[7] = test system: Adhesion of guinea pig peritoneal cells to HUVECs; test: Cell adhesion of guinea pig peritoneal cells to human umbilical vein-derived endothelial cells (HUVECs); format: cell-based
Protocol: HUVECs were suspended in 199 medium containing 20% fetal calf serum, 20 μg/ml endothelial cell growth factor derived from bovine brain and 100 μg/ml heparin, plated into 96-well microculture plates coated with collagen, and cultured at 37° C. in 5% CO2. When cells were grown to confluence, interleukin 1 (10 U/ml) was added, and the cells were cultured for 24 hours. After the cells were washed once with 199 medium, leukotriene B4 (1 μM), Compound A and guinea pig peritoneal cells [300,000 cells/well, obtained by intraperitoneally injecting 0.1% oyster glycogen (25 ml) and recovering 5 hours later] were added, and the cells were incubated for 30 minutes at 37° C. in 5% CO2. After nonadherent cells were removed by inverting the plates, rose bengal solution (0.25% in phosphate-buffered physiological saline) was added and the plates were kept still for 5 minutes. The cells were washed twice with 199 medium. Ethanol (50% in phosphate-buffered physiological saline) was added (200 μl/well) and the cells were kept still for 30 minutes to allow the leakage of rose bengal dye incorporated into the cells. Absorbance at 520 nm was measured with a 96-well plate reader and the value obtained by subtracting absorbance of the well Containing HUVECs alone was taken as an indicator of cell adhesion.

[8] = test system: Oxazolone-induced ear edema in mice; test: Oxazolone-induced ear edema in mice (oral administration, Experimental Example 8); format: in vivo, mouse; conditions: for Ear edema (right ear-left ear), mean ± S.D.: sensitized, days 0 to 8, control 17.6 ± 1.1, p < 0.01
Protocol: Mice were sensitized by applying 50 μl of oxazolone solution (50 mg/ml in acetone) to their shaved abdomen on day 0. On day 7, 5 μl of oxazolone was applied to each surface of the right ear. After 24 hours, the right and left ears were cut out with a puncher of 6 mm in diameter and weighed with an electronic reading balance. The difference in weight between the treated ear (right) and untreated ear (left) was taken to reflect the degree of ear edema. Compound A was suspended in 0.5% methylcellulose solution and administered orally (0.1 ml/10 g body weight) on days 0 to 8.

Question: Which results are given for COc1ccccc1NC(=O)NC1N=C(c2ccc(Cl)cc2)c2c(sc(C)c2C)-n2c(C)nnc21 (racemic) [Compound A, N-(4-(4-chlorophenyl)-2,3,9-trimethyl-6H-thieno[3,2-f][1,2,4]triazolo[4,3-a][1,4]diazepin-6-yl)-N'-(2-methoxyphenyl)urea]?
Answer: Inhibition of expression of VCAM-1 on HUVEC (in words) [1]: inhibited expression of VCAM-1 on HUVEC in a concentration-dependent manner; inhibition at 1 pM ([1]; Homo sapiens, HUVEC, Compound A 1 pM, TNF-α 100 U/ml, 5 hours): 19.7%; inhibition at 10 pM ([1]; Homo sapiens, HUVEC, Compound A 10 pM, TNF-α 100 U/ml, 5 hours): 67.1%; inhibition at 0.0001 µM ([1]; Homo sapiens, HUVEC, Compound A 100 pM, TNF-α 100 U/ml, 5 hours): 82.3%; inhibition at 0.001 µM ([1]; Homo sapiens, HUVEC, Compound A 1000 pM, TNF-α 100 U/ml, 5 hours): 80.8%; Inhibition of ear edema (in words) ([2]; intradermal administration): inhibited ear edema in sensitized or unsensitized mice in a dose-dependent manner; Ear edema (right ear-left ear), mean ± S.D. ([2]; sensitized, 1 μg/site intradermal, control 16.8 ± 0.7, p < 0.01): 15.0 ± 0.6 mg; Ear edema (right ear-left ear), mean ± S.D. ([2]; sensitized, 10 μg/site intradermal, control 16.8 ± 0.7, p < 0.01): 13.3 ± 0.7 mg; Ear edema (right ear-left ear), mean ± S.D. ([2]; unsensitized, 1 μg/site intradermal, control 7.7 ± 1.6, p < 0.05): 5.7 ± 1.1 mg; Ear edema (right ear-left ear), mean ± S.D. ([2]; unsensitized, 10 μg/site intradermal, control 7.7 ± 1.6, p < 0.05): 5.3 ± 0.7 mg; Ear edema (right ear-left ear), mean ± S.D. [3]: 7.8 ± 0.4 mg; Inhibition of leukocyte infiltration (in words) ([4]; administration into the nasal cavity): inhibited the leukocyte infiltration in TDI-induced guinea pig rhinitis dose-dependently; Number of leukocytes, mean ± S.D. ([4]; 0.1 μg/site into nasal cavities): 12.7 ± 1.41 ×100 cells/μl; Number of leukocytes, mean ± S.D. ([4]; 1 μg/site into nasal cavities): 7.1 ± 1.19 ×100 cells/μl; Number of leukocytes, mean ± S.D. ([4]; 10 μg/site into nasal cavities): 2.8 ± 0.17 ×100 cells/μl; Number of eosinophils (×10^6) ([5]; 0.01% solution nebulized, lung washings 24 hours after antigen, control 20.7 ± 2.95, p < 0.05): 8.9 ± 3.7 ×10^6; Eosinophil in lung washings (in words) ([5]; inhalation, 0.01%): significant decrease in eosinophil in lung washings; IC50 [6]: 250 nM; Inhibition of adhesion of guinea pig peritoneal cells (in words) [7]: inhibited adhesion of guinea pig peritoneal cells to vascular endothelial cells in a concentration-dependent manner; inhibition at 0.01 µM ([7]; Cavia porcellus, HUVEC, Compound A 0.01 μM, leukotriene B4 1 μM): -4.7%; inhibition at 0.1 µM ([7]; Cavia porcellus, HUVEC, Compound A 0.1 μM, leukotriene B4 1 μM): 32.6%; inhibition at 1 µM ([7]; Cavia porcellus, HUVEC, Compound A 1 μM, leukotriene B4 1 μM): 95.5%; inhibition at 10 µM ([7]; Cavia porcellus, HUVEC, Compound A 10 μM, leukotriene B4 1 μM): 97.9%; IC50 ([7]; Cavia porcellus, HUVEC, leukotriene B4 1 μM, read-out: concentration necessary for 50% inhibition (IC50 values, μM) of adhesion): ~0.2 µM; Cell adhesion (absorbance at 520 nm) ([7]; Compound A 0.01 μM, leukotriene B4 1 μM): 0.222 absorbance at 520 nm; Cell adhesion (absorbance at 520 nm) ([7]; Compound A 0.1 μM, leukotriene B4 1 μM): 0.169 absorbance at 520 nm; Cell adhesion (absorbance at 520 nm) ([7]; Compound A 1 μM, leukotriene B4 1 μM): 0.080 absorbance at 520 nm; Cell adhesion (absorbance at 520 nm) ([7]; Compound A 10 μM, leukotriene B4 1 μM): 0.077 absorbance at 520 nm; Inhibition of ear edema (in words) ([8]; oral administration): inhibited ear edema in mice in a dose-dependent manner; Ear edema (right ear-left ear), mean ± S.D. ([8]; oral 10 mg/kg/day): 16.0 ± 0.7 mg; Ear edema (right ear-left ear), mean ± S.D. ([8]; oral 30 mg/kg/day): 15.4 ± 0.5 mg; Ear edema (right ear-left ear), mean ± S.D. ([8]; oral 100 mg/kg/day): 14.4 ± 0.5 mg

Question: With COc1ccccc1NC(=O)NC1N=C(c2ccc(Cl)cc2)c2c(sc(C)c2C)-n2c(C)nnc21 (single isomer, unassigned; (-)) [Compound B, (-)-N-(4-(4-chlorophenyl)-2,3,9-trimethyl-6H-thieno[3,2-f][1,2,4]triazolo[4,3-a][1,4]diazepin-6-yl)-N'-(2-methoxyphenyl)urea] as the compound, how does the IC50 [6] read?
Answer: 63 nM
